Legend:
[1] = Oligonucleotide concentration in liver and colon by LC-MS/MS after subcutaneous administration in CD-1 mice (Example 6); assay type: in vivo; details: 50 mg/kg subcutaneously twice a week for 7 weeks, 48 hours after the last dose
Description: (§1) Groups of 8-9 week old male CD-1 mice were injected subcutaneously twice a week for 7 weeks with 50 mg/kg of Ionis oligonucleotides (100 mg/kg/week dose). Each group contained 4 mice. One group of male CD-1 mice was injected subcutaneously twice a week for 7 weeks with PBS. Plasma was collected for analysis on day 28.
Oligonucleotide concentrations in the liver and colon were analyzed using LC-MS/MS method.

[2] = Hematology assays after oral gavage in CD-1 mice (Example 7); assay type: in vivo; set-up: RBC: unit not given here; details: 500 mg/kg oral gavage once daily for 4 weeks
Description: (§2) Groups of 7-8 week old male CD-1 mice were given an oral gavage dose once daily for 4 weeks of 500 mg/kg of Ionis SMAD7 oligonucleotides. Each group contained 8 mice. One group of male CD-1 mice was administered saline by oral gavage daily.
Blood obtained from all mouse groups was measured by an ADVIA2120i hematology analyzer (Siemens, USA) for measurements of the various blood cells, as well as other hematology markers. None of the Ionis SMAD7 oligonucleotides caused changes in the levels of any of the hematology markers outside the expected range for antisense oligonucleotides.

[3] = tested on: human peripheral blood mononuclear cells (PBMCs); experiment: Human PBMC activation assay, cytokine levels (IL-10, IL-6, MCP-1, TNF-α) in supernatant after 24 hours (Example 9); details: human PBMC supernatant after 24 hours
Description: Ionis SMAD7 oligonucleotides were tested in an in vitro assay for potential immunostimulatory properties in an in vitro human peripheral blood mononuclear cell (PBMC) activation assay.
Blood samples were collected from healthy human volunteers in heparinized vials and mixed well. Human PBMCs were isolated by gradient centrifugation using Ficoll-Histopaque. The cells were washed, counted and resuspended in medium. The PBMCs were plated in a 24-well culture plate and various concentrations of oligonucleotides were added to the media. An oligonucleotide historically known to promote an inflammatory response was used as a positive control, whereas an oligonucleotide known not to be pro-inflammatory was used as a negative control. […] The supernatants were collected after 24 hours and analyzed for cytokine levels using MSD platform.

[4] = Body and organ weights after oral gavage in CD-1 mice (Example 7); assay type: in vivo; details: 500 mg/kg oral gavage once daily for 4 weeks, end of study
Description: as §2
Final body weights were measured at the end of the study. There was no significant difference in the body weight of the mice treated with antisense oligonucleotide compared to the control.
None of the Ionis SMAD7 oligonucleotides caused any changes in organ weights outside the expected range for antisense oligonucleotides.

[5] = tested on: mouse Smad7 mRNA; experiment: Pharmacology: mouse Smad7 mRNA expression in liver, kidney, duodenum, ileum and colon after subcutaneous administration in CD-1 mice (Example 6); assay type: in vivo; details: 50 mg/kg subcutaneous twice weekly for 7 weeks, normalized to GAPDH
Description: as §1
The pharmacological activity of the Ionis oligonucleotides in mice was assessed by measuring mouse Smad7 mRNA expression in liver, kidney, duodenum, ileum, and colon at necropsy.
Tissue samples from all mice were analyzed for Smad7 mRNA expression using the primer probe set HTS7555 (forward sequence […], designated SEQ ID NO: 2737; reverse sequence […], designated SEQ ID NO: 2738; probe sequence […], designated SEQ ID NO: 2739), which was normalized to mRNA levels of the housekeeping gene, GAPDH. One-way ANOVA with Dunnet's comparison test was used for statistical analysis.

[6] = Plasma chemistry markers after subcutaneous administration in beagle dogs (Example 8); details: 30 mg/kg subcutaneous days 1, 3, 5, 8, 15, 22, 29, plasma at day 31
[7] = Hematology assays after subcutaneous administration in beagle dogs (Example 8); assay type: in vivo; details: 30 mg/kg subcutaneous days 1, 3, 5, 8, 15, 22, 29
Description: There were 4 animals per group.
Blood samples were collected from the cephalic vein or saphenous vein of each animal. About 0.5 mL of blood samples was put into tubes containing the potassium salt of EDTA. Blood obtained from all dog groups was measured using an ADVIA2120i hematology analyzer for measurements of the various blood cells, as well as other hematology markers.

[8] = Blood chemistry markers after oral gavage in CD-1 mice (Example 7); assay type: in vivo; details: 500 mg/kg oral gavage once daily for 4 weeks, day 30
Description: The objective of this study was to evaluate the tolerability and pharmacodynamics of select Ionis human SMAD7 antisense oligonucleotides in CD-1 mice following 4 weeks of treatment. The mice were administered oligonucleotides by oral gavage.
as §2
Levels of transaminases, albumin, and BUN were measured using a Toshiba 200FR NEO chemistry analyzer (Toshiba Co., Japan).

## 790615 (CCAATGAGAATGCTTC; 3-10-3 cEt gapmer, further chemistry not given here) [compound 790615]
[1]
  Oligonucleotide concentration, Colon: 13 μg/g tissue
  Oligonucleotide concentration, Liver: 75 μg/g tissue
[2]
  Basophils: 0.01 10^3/μL
  Eosinophils: 0.11 10^3/μL
  Hematocrit: 52.2%
  Hemoglobin: 15.2 g/dL
  Lymphocytes: 78.3%
  MCH: 15.0 pg
  MCHC: 29.1 g/dL
  MCV: 51.6 fL
  Monocytes: 0.15 10^3/μL
  Neutrophils: 16.0%
  RBC: 10.1
  Reticulocytes: 2.8%
  WBC: 5.4 10^3/μL
  platelets: 1033 10^3/μL
[3]; 0.0128 μM oligonucleotide
  Levels of IL-6: 3.7 pg/mL
  Levels of IL-10: 1.1 pg/mL
  Levels of MCP-1: 329.5 pg/mL
  Levels of TNF-α: 3.1 pg/mL
[3]; 0.064 μM oligonucleotide
  Levels of IL-6: 3.8 pg/mL
  Levels of IL-10: 1.6 pg/mL
  Levels of MCP-1: 281.8 pg/mL
  Levels of TNF-α: 2.5 pg/mL
[3]; 0.32 μM oligonucleotide
  Levels of IL-6: 6.5 pg/mL
  Levels of IL-10: 2.4 pg/mL
  Levels of MCP-1: 424.3 pg/mL
  Levels of TNF-α: 3.4 pg/mL
[3]; 1.6 μM oligonucleotide
  Levels of IL-6: 9.0 pg/mL
  Levels of IL-10: 3.1 pg/mL
  Levels of MCP-1: 495.8 pg/mL
  Levels of TNF-α: 4.2 pg/mL
[3]; 8 μM oligonucleotide
  Levels of IL-6: 10.0 pg/mL
  Levels of IL-10: 1.9 pg/mL
  Levels of MCP-1: 449.0 pg/mL
  Levels of TNF-α: 4.8 pg/mL
[3]; 40 μM oligonucleotide
  Levels of IL-6: 11.0 pg/mL
  Levels of IL-10: 0.8 pg/mL
  Levels of MCP-1: 301.9 pg/mL
  Levels of TNF-α: 4.8 pg/mL
[3]; 200 μM oligonucleotide
  Levels of IL-6: 22.9 pg/mL
  Levels of IL-10: 0.7 pg/mL
  Levels of MCP-1: 81.6 pg/mL
  Levels of TNF-α: 4.8 pg/mL
[4]
  Body weight: 35 g
  Heart weight: 0.17 g
  Kidneys weight: 0.64 g
  Liver with gallbladder weight: 1.88 g
  Spleen weight: 0.11 g
[5]
  % inhibition of Smad7 mRNA expression (compared to control), Kidney: 23%
  % inhibition of Smad7 mRNA expression (compared to control), Liver: 18%
[6]
  ALT: 38 IU/L
  AST: 41 IU/L
  Albumin: 3.4 g/dL
  BUN: 15.7 mg/dL
  Bilirubin: 0.2 mg/dL
  Creatine: 0.8 mg/dL
[7]
  Basophils: 0.5%
  Eosinophils: 2.6%
  Hematocrit: 45%
  Hemoglobin: 14.5 g/dL
  Lymphocytes: 36%
  MCH: 21.9 pg
  MCHC: 32.5 g/dL
  MCV: 68 fL
  Monocytes: 7.9%
  Neutrophils: 53%
  PLT: 242 ^3/μL
  RBC: 6.6 ^6/L
  Reticulocytes: 0.7%
  WBC: 7.1 ^3/μL
[8]
  ALT: 41 IU/L
  AST: 77 IU/L
  Albumin: 3.3 g/dL
  BUN: 22 mg/dL
  Bilirubin: 0.3 mg/dL

## 798781 (CGTAAGATTCACAGCA; 3-10-3 cEt gapmer, further chemistry not given here) [compound 798781]
[1]
  Oligonucleotide concentration, Colon: 63 μg/g tissue
  Oligonucleotide concentration, Liver: 312 μg/g tissue
[2]
  Basophils: 0.02 10^3/μL
  Eosinophils: 0.26 10^3/μL
  Hematocrit: 52.0%
  Hemoglobin: 15.2 g/dL
  Lymphocytes: 74.0%
  MCH: 15.1 pg
  MCHC: 29.1 g/dL
  MCV: 51.7 fL
  Monocytes: 0.18 10^3/μL
  Neutrophils: 18.0%
  RBC: 10.1
  Reticulocytes: 3.0%
  WBC: 5.7 10^3/μL
  platelets: 1099 10^3/μL
[3]; 0.0128 μM oligonucleotide
  Levels of IL-6: 3.4 pg/mL
  Levels of IL-10: 2.2 pg/mL
  Levels of MCP-1: 332.9 pg/mL
  Levels of TNF-α: 2.6 pg/mL
[3]; 0.064 μM oligonucleotide
  Levels of IL-6: 4.9 pg/mL
  Levels of IL-10: 2.0 pg/mL
  Levels of MCP-1: 387.0 pg/mL
  Levels of TNF-α: 3.3 pg/mL
[3]; 0.32 μM oligonucleotide
  Levels of IL-6: 6.9 pg/mL
  Levels of IL-10: 2.3 pg/mL
  Levels of MCP-1: 483.1 pg/mL
  Levels of TNF-α: 3.8 pg/mL
[3]; 1.6 μM oligonucleotide
  Levels of IL-6: 12.3 pg/mL
  Levels of IL-10: 3.9 pg/mL
  Levels of MCP-1: 597.2 pg/mL
  Levels of TNF-α: 5.1 pg/mL
[3]; 8 μM oligonucleotide
  Levels of IL-6: 18.1 pg/mL
  Levels of IL-10: 2.9 pg/mL
  Levels of MCP-1: 582.7 pg/mL
  Levels of TNF-α: 6.5 pg/mL
[3]; 40 μM oligonucleotide
  Levels of IL-6: 20.7 pg/mL
  Levels of IL-10: 1.4 pg/mL
  Levels of MCP-1: 565.8 pg/mL
  Levels of TNF-α: 6.3 pg/mL
[3]; 200 μM oligonucleotide
  Levels of IL-6: 28.0 pg/mL
  Levels of IL-10: 0.6 pg/mL
  Levels of MCP-1: 61.3 pg/mL
  Levels of TNF-α: 4.0 pg/mL
[4]
  Body weight: 35 g
  Heart weight: 0.17 g
  Kidneys weight: 0.64 g
  Liver with gallbladder weight: 1.86 g
  Spleen weight: 0.09 g
[5]
  % inhibition of Smad7 mRNA expression (compared to control), Kidney: 18%
  % inhibition of Smad7 mRNA expression (compared to control), Liver: 28%
[6]
  ALT: 32 IU/L
  AST: 45 IU/L
  Albumin: 3.0 g/dL
  BUN: 19.4 mg/dL
  Bilirubin: 0.2 mg/dL
  Creatine: 0.9 mg/dL
[7]
  Basophils: 0.5%
  Eosinophils: 2.7%
  Hematocrit: 48%
  Hemoglobin: 16.2 g/dL
  Lymphocytes: 34%
  MCH: 22.3 pg
  MCHC: 33.6 g/dL
  MCV: 67 fL
  Monocytes: 6.5%
  Neutrophils: 56%
  PLT: 191 ^3/μL
  RBC: 7.3 ^6/L
  Reticulocytes: 0.6%
  WBC: 7.3 ^3/μL
[8]
  ALT: 43 IU/L
  AST: 73 IU/L
  Albumin: 3.2 g/dL
  BUN: 25 mg/dL
  Bilirubin: 0.3 mg/dL
